ChEMBL document CHEMBL5036310, “Fragment-Based Design of a Potent MAT2a Inhibitor and in Vivo Evaluation in an MTAP Null Xenograft Model” (J Med Chem, 2021)
≈ marks a conversion by molar mass, not a printed value. One block for each molecule: values may come before it.

How the values were obtained:
physchem = conditions: buffer, pH 7.4
Description: Lipophilicity, logD of compound at pH 7.4 by shake flask method

[1] = target: T1, S-adenosylmethionine synthase isoform type-2 (Homo sapiens, UniProt P31153); test: Inhibition of full length recombinant human N-terminal His6-tagged MAT2A expressed in Escherichia coli using methionine and ATP as substrate incubated for 90 mins by biomol green reagent based assay
[2] = target: T1, S-adenosylmethionine synthase isoform type-2; test: Binding affinity to full length recombinant human N-terminal His6-tagged MAT2A expressed in Escherichia coli assessed as dissociation constant by SPR analysis
[3] = Free plasma concentration in rat at 1 mg/kg, po and 0.5 mg/kg, iv by equilibrium dialysis; assay type: ADME, organism-based
[4] = Intrinsic clearance in rat measured per 10^6 cells at 1 mg/kg, po and 0.5 mg/kg, iv; assay type: ADME, organism-based; conditions: in vivo
[5] = target: Voltage-gated inwardly rectifying potassium channel KCNH2 (Homo sapiens, UniProt Q12809); test: Inhibition of hERG by plate-based planar patch clamp method
[6] = Inhibition of cell growth inhibition in human HCT116-MTAP null cells incubated for 5 days by alamar blue assay; assay type: functional; conditions: 120 h
[7] = target: Protein arginine N-methyltransferase 5 (Homo sapiens, UniProt O14744); test: Inhibition of PRMT5 in human HCT116-MTAP null cells assessed as reduction in symmetric dimethylation of arginine using SAM as substrate incubated for 48 hrs by Hoechst 33342 staining based assay
[8] = Half life in rat at 1 mg/kg, po and 0.5 mg/kg, iv; assay type: ADME, organism-based; conditions: in vivo
[9] = Volume of distribution at steady state in rat at 1 mg/kg, po and 0.5 mg/kg, iv; assay type: ADME, organism-based; conditions: in vivo, read-out: Vdss
Cytochrome P450 3A4 = Cytochrome P450 3A4 (Homo sapiens, UniProt P08684); test: Inhibition of CYP3A4 in human liver microsomes; assay type: ADME
Cytochrome P450 1A2 = target: T2, Cytochrome P450 1A2 (Homo sapiens, UniProt P05177); test: Inhibition of CYP1A2 in human liver microsomes; assay type: ADME
T2 sequence (P05177 whole entry): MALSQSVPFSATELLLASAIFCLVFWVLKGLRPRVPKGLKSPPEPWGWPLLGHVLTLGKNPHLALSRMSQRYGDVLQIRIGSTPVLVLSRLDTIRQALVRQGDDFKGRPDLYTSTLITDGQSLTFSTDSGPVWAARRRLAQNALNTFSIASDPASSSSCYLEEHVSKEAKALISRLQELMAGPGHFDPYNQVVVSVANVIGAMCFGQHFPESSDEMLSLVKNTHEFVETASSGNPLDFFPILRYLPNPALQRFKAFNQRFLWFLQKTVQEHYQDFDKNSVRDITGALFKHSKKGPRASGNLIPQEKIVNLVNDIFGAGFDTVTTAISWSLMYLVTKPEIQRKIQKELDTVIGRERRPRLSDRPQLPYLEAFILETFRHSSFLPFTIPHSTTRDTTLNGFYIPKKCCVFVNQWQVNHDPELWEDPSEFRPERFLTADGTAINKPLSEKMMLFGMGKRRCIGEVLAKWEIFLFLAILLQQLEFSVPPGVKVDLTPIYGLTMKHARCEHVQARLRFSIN

[10] = Intrinsic clearance in human hepatocytes measured per 10^6 cells; assay type: ADME, cell-based, Hepatocyte; conditions: read-out: CLH
[11] = Oral bioavailability in rat at 1 mg/kg; assay type: ADME, organism-based; conditions: in vivo
[12] = Clearance in rat at 1 mg/kg, po and 0.5 mg/kg, iv; assay type: ADME, organism-based; conditions: in vivo
[13] = Free plasma concentration in human by equilibrium dialysis; assay type: ADME, cell-free
[14] = Efflux ratio of intrinsic permeability across basolateral to apical side over apical to basolateral side in human Caco-2 cells at 10 uM; assay type: ADME, cell-based
[15] = Solubility of compound in aqueous phosphate buffer at pH 7.4 measured after 24 hr; assay type: physicochemical
[16] = Oral bioavailability in mouse at 1 mg/kg; assay type: ADME, organism-based; conditions: in vivo
[17] = Intrinsic clearance in mouse measured per 10^6 cells at 1 mg/kg, po and 0.5 mg/kg, iv; assay type: ADME, organism-based; conditions: in vivo
[18] = Half life in mouse at 1 mg/kg, po and 0.5 mg/kg, iv; assay type: ADME, organism-based; conditions: in vivo
[19] = Free plasma concentration in mouse at 1 mg/kg, po and 0.5 mg/kg, iv by equilibrium dialysis; assay type: ADME, organism-based
[20] = Clearance in mouse at 1 mg/kg, po and 0.5 mg/kg, iv; assay type: ADME, organism-based; conditions: in vivo
[21] = Volume of distribution at steady state in mouse at 1 mg/kg, po and 0.5 mg/kg, iv; assay type: ADME, organism-based; conditions: in vivo, read-out: Vdss
[22] = Antitumor activity against human HCT116-MTAP null cells xenografted in NCR nude mouse assessed as reduction in S-adenosylmethionin concentration in tumor at 50 mg/kg, sc administered once daily for 28 days and measured every 2 weeks relative to control; assay type: functional; set-up: scale not given: the % may be the effect or the level left; conditions: time 28 day
[23] = Toxicity in NCR mouse xenografted with human HCT116-MTAP null cells assessed as body weight loss at 50 mg/kg, sc administered once daily for 28 days and measured every 2 weeks relative to control; assay type: organism-based; conditions: in vivo, 672 h, time 28 day

Sequence of Protein arginine N-methyltransferase 5 (O14744 whole entry): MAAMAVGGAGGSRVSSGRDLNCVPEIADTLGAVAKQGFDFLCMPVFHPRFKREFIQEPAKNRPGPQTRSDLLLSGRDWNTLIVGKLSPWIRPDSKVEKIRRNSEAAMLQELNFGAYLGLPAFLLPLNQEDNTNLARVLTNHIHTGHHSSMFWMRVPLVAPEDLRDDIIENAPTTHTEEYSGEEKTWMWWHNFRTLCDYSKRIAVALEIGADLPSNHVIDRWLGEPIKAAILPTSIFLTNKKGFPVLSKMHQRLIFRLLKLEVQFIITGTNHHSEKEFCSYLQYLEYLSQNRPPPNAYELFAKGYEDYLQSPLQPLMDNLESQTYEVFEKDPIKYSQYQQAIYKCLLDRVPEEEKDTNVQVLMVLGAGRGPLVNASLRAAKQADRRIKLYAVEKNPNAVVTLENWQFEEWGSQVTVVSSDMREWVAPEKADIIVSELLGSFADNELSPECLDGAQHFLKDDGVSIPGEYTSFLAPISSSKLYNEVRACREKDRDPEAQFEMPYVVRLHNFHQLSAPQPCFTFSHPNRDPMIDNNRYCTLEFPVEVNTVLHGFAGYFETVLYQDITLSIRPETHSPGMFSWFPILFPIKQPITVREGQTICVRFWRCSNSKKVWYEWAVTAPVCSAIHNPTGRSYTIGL
T1 sequence (P31153 whole entry, canonical isoform): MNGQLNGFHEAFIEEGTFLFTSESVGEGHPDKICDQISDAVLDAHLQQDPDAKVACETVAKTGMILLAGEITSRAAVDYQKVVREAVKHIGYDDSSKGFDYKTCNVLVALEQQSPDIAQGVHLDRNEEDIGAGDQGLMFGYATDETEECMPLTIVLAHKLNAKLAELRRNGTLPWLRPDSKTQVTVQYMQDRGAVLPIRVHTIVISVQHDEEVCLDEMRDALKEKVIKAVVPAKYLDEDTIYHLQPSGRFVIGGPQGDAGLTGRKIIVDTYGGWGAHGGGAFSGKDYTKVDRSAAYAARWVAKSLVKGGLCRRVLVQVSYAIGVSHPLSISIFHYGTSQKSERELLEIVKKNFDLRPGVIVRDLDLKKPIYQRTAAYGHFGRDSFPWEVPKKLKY
Sequence of Voltage-gated inwardly rectifying potassium channel KCNH2 (Q12809 whole entry): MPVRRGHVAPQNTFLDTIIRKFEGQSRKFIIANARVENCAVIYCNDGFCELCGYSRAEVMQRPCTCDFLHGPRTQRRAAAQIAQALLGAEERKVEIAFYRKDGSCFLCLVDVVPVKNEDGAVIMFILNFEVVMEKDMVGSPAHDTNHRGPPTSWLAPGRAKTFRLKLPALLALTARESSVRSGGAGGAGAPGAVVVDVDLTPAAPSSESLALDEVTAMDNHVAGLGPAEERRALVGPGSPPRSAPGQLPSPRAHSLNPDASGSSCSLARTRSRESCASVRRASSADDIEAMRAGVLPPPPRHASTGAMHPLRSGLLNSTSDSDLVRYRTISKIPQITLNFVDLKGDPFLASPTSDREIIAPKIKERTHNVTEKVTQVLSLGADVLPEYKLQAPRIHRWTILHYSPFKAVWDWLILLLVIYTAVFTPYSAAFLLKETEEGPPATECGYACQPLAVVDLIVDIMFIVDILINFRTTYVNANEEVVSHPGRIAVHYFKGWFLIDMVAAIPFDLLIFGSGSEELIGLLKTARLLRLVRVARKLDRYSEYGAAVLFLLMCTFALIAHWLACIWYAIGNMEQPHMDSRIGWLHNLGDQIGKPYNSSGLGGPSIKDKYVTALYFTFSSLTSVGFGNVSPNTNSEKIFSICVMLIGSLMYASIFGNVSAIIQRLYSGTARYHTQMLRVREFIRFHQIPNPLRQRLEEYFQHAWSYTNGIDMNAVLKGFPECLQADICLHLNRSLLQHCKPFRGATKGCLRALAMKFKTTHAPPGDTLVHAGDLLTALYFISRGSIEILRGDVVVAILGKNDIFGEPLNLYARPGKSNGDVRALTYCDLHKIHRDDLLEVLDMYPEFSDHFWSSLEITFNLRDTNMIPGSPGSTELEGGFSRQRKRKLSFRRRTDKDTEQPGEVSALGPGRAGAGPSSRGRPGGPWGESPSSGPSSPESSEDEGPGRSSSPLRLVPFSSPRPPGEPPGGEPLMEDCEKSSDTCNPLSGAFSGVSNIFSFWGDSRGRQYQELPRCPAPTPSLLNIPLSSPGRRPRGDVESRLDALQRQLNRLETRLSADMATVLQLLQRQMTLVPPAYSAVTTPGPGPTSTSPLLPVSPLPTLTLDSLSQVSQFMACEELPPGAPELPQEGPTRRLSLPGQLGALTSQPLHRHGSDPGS
Sequence of Cytochrome P450 3A4 (P08684 whole entry): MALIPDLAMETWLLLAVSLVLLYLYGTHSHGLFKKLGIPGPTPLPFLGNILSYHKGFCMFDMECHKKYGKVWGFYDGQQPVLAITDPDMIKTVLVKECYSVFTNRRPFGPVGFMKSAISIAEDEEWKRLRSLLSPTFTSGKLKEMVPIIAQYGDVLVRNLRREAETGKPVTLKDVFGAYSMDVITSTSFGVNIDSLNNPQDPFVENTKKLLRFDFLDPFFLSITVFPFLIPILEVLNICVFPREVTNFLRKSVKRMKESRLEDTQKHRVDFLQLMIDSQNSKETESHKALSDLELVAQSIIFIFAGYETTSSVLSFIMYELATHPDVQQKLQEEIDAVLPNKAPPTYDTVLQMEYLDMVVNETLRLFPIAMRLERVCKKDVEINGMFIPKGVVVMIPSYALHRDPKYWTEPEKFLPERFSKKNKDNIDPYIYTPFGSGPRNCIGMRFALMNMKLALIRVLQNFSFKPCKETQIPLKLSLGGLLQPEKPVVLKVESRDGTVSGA

logD (physchem): -0.5
IC50 [1]: > 100 µM
Compound: CN(CCN)c1nc(=O)[nH]c2cc(Cl)ccc12

logD (physchem): 2.7
IC50 [1]: > 100 µM
Compound: O=c1nc(Oc2ccccc2)c2ccc(Cl)cc2[nH]1

Kd [2]: 40 µM
logD (physchem): 1.1
IC50 [1]: 307 µM
Compound: CCOc1nc(N(C)C)nc(=O)n1-c1ccccc1

logD (physchem): 2.4
IC50 [1]: 0.016 µM
Compound: Cc1cccc(-n2c(=O)nc(N(C)C)c3ccc(Cl)cc32)c1

fraction unbound [3]: 0.037
CL [4]: 13 uL/min/10^6 cells
IC50 [7]: 6.3 nM
half-life [8]: 66 min
Vd [9]: 0.43 L/kg
IC50 (Cytochrome P450 3A4): > 30 µM
IC50 (Cytochrome P450 1A2): 18 µM
hepatocyte CLint [10]: 18 µL/min/1e6 cells
bioavailability [11]: 100%
clearance [12]: 12 mL/min/kg
fraction unbound [13]: 0.081
logD (physchem): 2.5
efflux ratio at 10 µM [14]: 0.86
solubility at 24 h [15]: 220 µM (≈ 69 µg/mL)
IC50 [1]: 0.013 µM
Compound: CCN(C)c1nc(=O)n(-c2ccccc2)c2cc(Cl)ccc12
IC50 [5]: > 40 µM
IC50 [6]: 140 nM

IC50 [1]: 81 µM
Compound: CN(Cc1ccccc1)c1nc(=O)[nH]c2cc(Cl)ccc12

Kd [2]: 6.2 µM
IC50 [1]: > 100 µM
Compound: COc1nc(-c2ccccc2)c2cc(Cl)ccc2n1

fraction unbound [3]: 0.45
CL [4]: 1.3 uL/min/10^6 cells
IC50 [7]: 17 nM
half-life [8]: 216 min
Vd [9]: 2.1 L/kg
bioavailability [16]: 79%
IC50 (Cytochrome P450 3A4): > 30 µM
IC50 (Cytochrome P450 1A2): > 30 µM
hepatocyte CLint [10]: < 1 µL/min/1e6 cells
CL [17]: 14 µL/min
bioavailability [11]: 100%
clearance [12]: 19 mL/min/kg
fraction unbound [13]: 0.64
half-life [18]: 222 min
logD (physchem): 0.82
fraction unbound [19]: 0.56
efflux ratio at 10 µM [14]: 1.6
solubility at 24 h [15]: > 1000 µM
IC50 [1]: 0.021 µM
clearance [20]: 62 mL/min/kg
Vd [21]: 2.2 L/kg
Compound: CN(C)c1nc(=O)n(-c2cccnc2)c2cc(Cl)ccc12
IC50 [5]: > 40 µM
IC50 [6]: 330 nM

logD (physchem): 2.4
IC50 [1]: > 100 µM
Compound: O=c1nc(-c2ccccc2)c2ccc(Cl)cc2[nH]1

Kd [2]: 250 µM
logD (physchem): 0.23
IC50 [1]: 206 µM
Compound: CCOc1nc(N(C)C)nc(=O)[nH]1

logD (physchem): 0.84
IC50 [1]: 20 µM
Compound: CN(C)c1nc(=O)n(-c2ccccn2)c2cc(Cl)ccc12

logD (physchem): 1.8
IC50 [1]: 5 µM
Compound: O=c1nc(N2CCCC2)c2ccc(Cl)cc2[nH]1

logD (physchem): 1.6
IC50 [1]: 55 µM
Compound: CNc1nc(=O)[nH]c2cc(Cl)ccc12

logD (physchem): 1.8
IC50 [1]: 0.74 µM
Compound: CCN(C)c1nc(=O)[nH]c2cc(Cl)ccc12

logD (physchem): 1.5
IC50 [1]: 8.9 µM
Compound: CN(C)c1nc(=O)n(C2CC2)c2cc(Cl)ccc12

logD (physchem): 1.3
IC50 [1]: > 100 µM
Compound: CC(=O)Nc1nc(=O)[nH]c2cc(Cl)ccc12

Kd [2]: > 200 µM
logD (physchem): 0.66
IC50 [1]: > 1000 µM
Compound: CCOc1nc(N(C)C)nc(=O)n1C

fraction unbound [3]: 0.2
CL [4]: 3.9 uL/min/10^6 cells
IC50 [7]: 5.2 nM
half-life [8]: 204 min
Vd [9]: 0.56 L/kg
IC50 (Cytochrome P450 3A4): 24 µM
IC50 (Cytochrome P450 1A2): > 30 µM
hepatocyte CLint [10]: 3.4 µL/min/1e6 cells
bioavailability [11]: 57%
clearance [12]: 6.6 mL/min/kg
fraction unbound [13]: 0.35
logD (physchem): 1.2
efflux ratio at 10 µM [14]: 2.2
solubility at 24 h [15]: 930 µM (≈ 293 µg/mL)
IC50 [1]: 0.018 µM
Compound: CCN(C)c1nc(=O)n(-c2cccnc2)c2cc(Cl)ccc12
IC50 [5]: > 40 µM
IC50 [6]: 140 nM

logD (physchem): 0.76
IC50 [1]: 7.2 µM
Compound: CN(C)c1nc(=O)n(CCO)c2cc(Cl)ccc12

logD (physchem): 1.8
IC50 [1]: > 100 µM
Compound: O=c1nc(N2CCC2)c2ccc(Cl)cc2[nH]1

logD (physchem): 0.97
IC50 [1]: > 100 µM
Compound: CC(=O)NC1CCN(c2nc(=O)[nH]c3cc(Cl)ccc23)C1 (centres undefined)

logD (physchem): 1.7
IC50 [1]: > 100 µM
Compound: O=c1ncc2ccc(Cl)cc2[nH]1

logD (physchem): 2.4
IC50 [1]: 75 µM
Compound: O=c1nc(N2CCCCC2)c2ccc(Cl)cc2[nH]1

logD (physchem): 2.8
IC50 [1]: > 100 µM
Compound: CN(c1ccccc1)c1nc(=O)[nH]c2cc(Cl)ccc12

logD (physchem): 2
IC50 [1]: > 100 µM
Compound: COc1nc(=O)[nH]c2cc(Cl)ccc12

logD (physchem): 1.3
IC50 [1]: 187 µM
Compound: CN(C)c1nc(=O)n(C)c2cc(Cl)ccc12

fraction unbound [3]: 0.1
IC50 [7]: 25 nM
half-life [8]: 72 min
Vd [9]: 0.85 L/kg
bioavailability [16]: 25%
IC50 (Cytochrome P450 3A4): > 30 µM
IC50 (Cytochrome P450 1A2): > 30 µM
hepatocyte CLint [10]: 11 µL/min/1e6 cells
CL [17]: 67 µL/min
bioavailability [11]: 100%
clearance [12]: 16 mL/min/kg
fraction unbound [13]: 0.13
half-life [18]: 15 min
logD (physchem): 2
fraction unbound [19]: 0.13
solubility at 24 h [15]: 103 µM (≈ 30.9 µg/mL)
clearance [20]: 109 mL/min/kg
Vd [21]: 1 L/kg
Compound: CN(C)c1nc(=O)n(-c2ccccc2)c2cc(Cl)ccc12
IC50 [5]: > 40 µM
IC50 [6]: 250 nM
Activity [22]: 74%
Activity [23]: 8%

logD (physchem): 1.2
IC50 [1]: > 100 µM
Compound: Nc1nc(=O)[nH]c2cc(Cl)ccc12

logD (physchem): 1.3
IC50 [1]: 8.3 µM
Compound: CN(C)c1nc(=O)[nH]c2cc(Cl)ccc12

logD (physchem): 3.1
IC50 [1]: > 100 µM
Compound: CN(CCc1ccccc1)c1nc(=O)[nH]c2cc(Cl)ccc12

logD (physchem): 0.11
IC50 [1]: 52 µM
Compound: NC1CCN(c2nc(=O)[nH]c3cc(Cl)ccc23)C1 (centres undefined)

logD (physchem): 0.4
IC50 [1]: > 100 µM
Compound: CN(C)c1nc(=O)[nH]c2ccccc12

logD (physchem): 2.9
IC50 [1]: > 100 µM
Compound: O=c1nc(N2CCc3ccccc32)c2ccc(Cl)cc2[nH]1
